Values of other authors in US20200253960A1, “ANTIBIOTIC FORMULATIONS FOR TREATING OF CAVITY INFECTIONS” (ARADIGM CORPORATION, priority 2019, published 2020).

Test system: Pseudomonas aeruginosa
Details: cystic fibrosis

Structure (SMILES): CC[C@H]1OC(=O)[C@H](C)[C@@H](O[C@H]2C[C@@](C)(OC)[C@@H](O)[C@H](C)O2)[C@H](C)[C@@H](O[C@@H]2O[C@H](C)C[C@H](N(C)C)[C@H]2O)[C@](C)(O)C[C@@H](C)CN(C)[C@H](C)[C@@H](O)[C@]1(C)O [azithromycin]
- interaction with inhaled tobramycin: antagonistic against inhaled tobramycin
